# Source: patent US20190174812A1, “SOLID ORAL NICOTINE FORMULATION” (Fertin Pharma A/S, priority 2017, published 2019)
# Details: nicotine concentration raised from 100 microgram/mL to 14,000 microgram/mL
compound,measurement,value
CN1CCCC1c1cccnc1 (stereo not shown) [nicotine],Decrease of permeability of nicotine across the buccal mucosa (factor),two
